Laboratory results published in publication PMC12040169 (PLOS Biology, 2025).

Assay: in vitro
Conditions: human, hela cells, % viability
`Oc1cccc(/C=N/c2nnn[nH]2)c1` [CBK260977] gave a viability at 28.5 h, 10 µM of 91.7%.
Work on `COc1ccc(-c2nc(-c3ccc(C(=O)N4CCOCC4)cc3)cnc2N)cc1` [CBK116509] yielded a viability at 28.5 h, 10 µM of 108%.
Work on `O=C(NCCCN1CCOCC1)C(=O)NC1CC1` [CBK267243] yielded a viability at 28.5 h, 10 µM of 101%.
With `Cc1cc(-c2cn3cc(C(=O)N4CCNCC4)nc3c(=O)n2C)c(C)o1` [CBK307325] the viability at 28.5 h, 10 µM was 108%.
In the case of `Cc1ccc(CNC(=O)C2(c3ccccc3)CCCC2)cc1F` [CBK161529], the viability at 28.5 h, 10 µM was 85.6%.
Molecule `O=C(CSc1nnc(SCc2cccc3ccccc23)s1)c1ccc(F)cc1` [CBK266218] has a viability at 28.5 h, 10 µM of 98.9%.
With `O=c1c([N+](=O)[O-])c[nH]c2nc(-c3ccncc3)nn12` [CBK288531N] the viability at 28.5 h, 10 µM was 87.8%.
Molecule `Brc1cccc(CSc2nnc(COc3ccccc3)n2Cc2ccccc2)c1` [CBK268250] has a viability at 28.5 h, 10 µM of 113%.
`Cc1cc(C)c(CNC(=O)N(C)C(C)c2ccncn2)cn1` (stereo not shown) [CBK307192] showed a viability at 28.5 h, 10 µM of 93.4%.
Molecule `O=C(C1CCCCC1)N1CCC(c2nnc(-c3ccsc3)o2)CC1` [CBK283380] has a viability at 28.5 h, 10 µM of 104%.
`COc1cc(F)cc(OC2CCNCC2)c1NC(=O)C1=CC(=O)CC(C)(C)O1` [CBK050352T] gave a viability at 28.5 h, 10 µM of 96.9%.
`CCC(=O)N1CCC[C@H]1Cn1nc(-c2ccc(F)cc2)ccc1=O` [CBK284253] showed a viability at 28.5 h, 10 µM of 81.1%.
Molecule `CCOC(=O)CCCCSc1c(CC)c(C)nc2ccccc12` [CBK153458T] has a viability at 28.5 h, 10 µM of 96%.
In the case of `CCCCN(C)c1c(C)nc2c(Oc3nc4ccccc4s3)cccn12` [CBK147192], the viability at 28.5 h, 10 µM was 93.4%.
Molecule `CC(C)N1CCN(Cc2c(C(F)(F)F)[nH]c3ncccc23)CC1` [CBK285354] has a viability at 28.5 h, 10 µM of 88.3%.
`COc1ccccc1CCNC(=O)N1CCC(Oc2cccnc2)CC1` [CBK307615] showed a viability at 28.5 h, 10 µM of 106%.
With `CN(Cc1ccccc1N1CCOCC1)C(=O)Cc1cn2ccsc2n1` [CBK305830] the viability at 28.5 h, 10 µM was 109%.
Molecule `CN1CN=C2SC3(COC(c4cccc(Br)c4)OC3)C(=O)N2C1` (stereo not shown) [CBK263700] has a viability at 28.5 h, 10 µM of 93.1%.
`O=C(Cn1cccn1)NC(CN1CCCCC1)c1ccccc1` (stereo not shown) [CBK281726] gave a viability at 28.5 h, 10 µM of 104%.
`O=C(Cc1c[nH]cn1)N1CCC2(CCN(Cc3ccccc3)C2)C1` (stereo not shown) [CBK137147] gave a viability at 28.5 h, 10 µM of 91%.
Work on `O=C(Cn1cc(C(=O)Nc2cc(F)ccc2N2CCCC2)ccc1=O)NC1CCCCC1` [CBK285981] yielded a viability at 28.5 h, 10 µM of 102%.
`O=C1N=C(NC2CCCCCC2)SC1Cc1ccc(O)cc1` (stereo not shown) [CBK067868] showed a viability at 28.5 h, 10 µM of 109%.
Work on `CS(=O)(=O)c1nc(-c2ccccc2)ns1` [CBK017338] yielded a viability at 28.5 h, 10 µM of 90.6%.
`O=C(OCc1ccccc1)N1CCC(C(=O)N(CCc2ccccc2)Cc2ccccc2)CC1` [CBK171978] gave a viability at 28.5 h, 10 µM of 92.5%.
In the case of `CN(CCCN1CCCCC1)C(=O)C1Cc2cc(Cl)ccc2O1` (stereo not shown) [CBK282162], the viability at 28.5 h, 10 µM was 104%.
For `Clc1ccc(CN2CCCN(c3nccc(OCC4COc5ccccc5O4)n3)CC2)cc1` (stereo not shown) [CBK084038], the viability at 28.5 h, 10 µM was 84.9%.
With `CC(=O)OC(c1ccccc1)c1nc2ccccc2[nH]1` (stereo not shown) [CBK110141] the viability at 28.5 h, 10 µM was 97.1%.
`O=C(NC(Nc1cccc(C(F)(F)F)c1)C(=O)c1ccccc1)c1ccc(Cl)cc1` (stereo not shown) [CBK263585] showed a viability at 28.5 h, 10 µM of 89.5%.
Work on `NC(=O)c1ccccc1NC(=O)CN1CCN(Cc2cccc(F)c2)CC1` [CBK270292] yielded a viability at 28.5 h, 10 µM of 85.9%.
For `Nc1ncc(-c2ccc(C(=O)N3CCOCC3)cc2)nc1C(=O)NCc1ccc(O)cc1` [CBK149161], the viability at 28.5 h, 10 µM was 109%.
Work on `Cc1ccnc2nc(C(=O)Nc3ccc4c(c3)CCC4)nn12` [CBK295194] yielded a viability at 28.5 h, 10 µM of 74.9%.
`Cc1sc(-c2cccs2)nc1OC(=O)c1cccc(C(F)(F)F)c1` [CBK067748] gave a viability at 28.5 h, 10 µM of 96.1%.
With `CC(=O)c1ccc(NC(=O)COn2nnc3ccc([N+](=O)[O-])cc32)cc1` [CBK266980] the viability at 28.5 h, 10 µM was 101%.
For `Cc1cc(Br)ccc1S(=O)(=O)N(C)c1ccc(N2CCNCC2)c2ccccc12` [CBK016170C], the viability at 28.5 h, 10 µM was 96%.
With `O=C1CCCN1c1ccc(S(=O)(=O)N(c2ccccc2)C2CCNCC2)cc1` [CBK165122T] the viability at 28.5 h, 10 µM was 109%.
Molecule `COc1ncccc1C(NC(=O)C1CCN(C(=O)OCc2ccccc2)CC1)c1ccccc1C` (stereo not shown) [CBK076802] has a viability at 28.5 h, 10 µM of 90.8%.
In the case of `COC(C)(C)C(=O)N1CCCC(c2ccc(Cc3cccc(C(F)(F)F)c3)cn2)C1` (stereo not shown) [CBK286124], the viability at 28.5 h, 10 µM was 107%.
For `O=C(OCc1ccc2sccc2c1)N1CCOCC1` [CBK200163], the viability at 28.5 h, 10 µM was 101%.
Work on `O=[N+]([O-])c1ccc(N2CCN(Cc3c(O)ccc4ccccc34)CC2)cc1NCc1ccccc1` [CBK268408] yielded a viability at 28.5 h, 10 µM of 105%.
For `CCOc1ccc2c(c1)C(=O)c1cc(OCC(=O)O)ccc1-2` [CBK286693], the viability at 28.5 h, 10 µM was 94.3%.
Molecule `Cc1cc(OCC(=O)Nc2nc[nH]n2)ccc1Cl` [CBK264321] has a viability at 28.5 h, 10 µM of 117%.
`COc1ccc(-c2cnc(NS(C)(=O)=O)c(C(=O)NCc3ccco3)c2)cc1` [CBK076539] gave a viability at 28.5 h, 10 µM of 94.9%.
Work on `Cc1cc(CN2CCN(S(=O)(=O)c3ccc(C(=O)c4ccccc4)cc3)CC2)cc(C)c1O` [CBK062933] yielded a viability at 28.5 h, 10 µM of 90.4%.
`O=C(Cc1ccc(F)cc1)N1CCC(O)(c2ccccn2)CC1` [CBK283588] showed a viability at 28.5 h, 10 µM of 97%.
Molecule `CC(=O)N1N=C(COc2ccc(C)cc2)OC1c1ccc(Br)cc1` (stereo not shown) [CBK294396] has a viability at 28.5 h, 10 µM of 103%.
Molecule `COC1=CC2CCNC(CCCCC3NCCc4cc(OC)c(OC)cc43)C2C=C1OC` (stereo not shown) [CBK013354] has a viability at 28.5 h, 10 µM of 87%.
`COc1ccc(-c2cnc3[nH]c(=O)n(CC(C)(C)CO)c3n2)c(OC)c1OC` [CBK064833] gave a viability at 28.5 h, 10 µM of 91.8%.
`O=C1/C(=N\Nc2ccc([N+](=O)[O-])cc2[N+](=O)[O-])c2ccccc2N1CN1CCCCC1` [CBK260926] showed a viability at 28.5 h, 10 µM of 94.4%.
For `CC(C)Oc1ncc(C(=O)Nc2cnn(CC(N)=O)c2)cc1Cl` [CBK306311], the viability at 28.5 h, 10 µM was 90.4%.
Work on `O=C(CSCc1c(F)cccc1Cl)Nc1ccc(S(=O)(=O)N2CCCCCC2)cc1` [CBK268497] yielded a viability at 28.5 h, 10 µM of 100%.
`O=C(NCc1ccc(F)cc1)NC(=O)C1CCN(CCc2ccc(Br)cc2)CC1` [CBK034836] showed a viability at 28.5 h, 10 µM of 95.2%.
Molecule `COc1nccnc1N1CCN(Cc2cccnc2)CC1` [CBK084213] has a viability at 28.5 h, 10 µM of 91.2%.
Work on `CCN(CC(=O)NCc1cccs1)C(=O)CN1CCCC1c1ccc(C)cc1` (stereo not shown) [CBK297761] yielded a viability at 28.5 h, 10 µM of 104%.
Molecule `COc1ccc(C(=O)N2CCC3(CCN(Cc4cc(=O)[nH]c(=O)[nH]4)C3)C2)cc1OC` (stereo not shown) [CBK132162] has a viability at 28.5 h, 10 µM of 108%.
Work on `CCNC(=O)N(C)c1c(CC)nc2c(OCC3CCCCC3)cccn12` [CBK147795] yielded a viability at 28.5 h, 10 µM of 108%.
With `O=C(CSc1nc2cccnc2[nH]1)Nc1cc(Cl)ccc1Cl` [CBK264644] the viability at 28.5 h, 10 µM was 101%.
`Cc1cccc2c(=O)nc(-c3ccccc3Cl)oc12` [CBK152422] showed a viability at 28.5 h, 10 µM of 106%.
With `C(=N\c1ccc(Cc2ccncc2)cc1)/c1ccc(/C=N/c2ccc(Cc3ccncc3)cc2)cc1` [CBK262137] the viability at 28.5 h, 10 µM was 97%.
`N#C/C(=C/c1ccc(OCc2cccc(C(=O)O)c2)cc1)c1ccc([N+](=O)[O-])cc1` [CBK266626] gave a viability at 28.5 h, 10 µM of 89.6%.
`Cc1cc(C[C@@H]2COC[C@H]2NCc2cccs2)on1` [CBK282999] gave a viability at 28.5 h, 10 µM of 95.8%.
`OC1(c2cccnc2)CCN(CC2(c3ccc(Cl)cc3)CC2)CC1` [CBK282780] showed a viability at 28.5 h, 10 µM of 93%.
For `O=C(NCc1ccncc1)OCCc1ccncc1` [CBK200133], the viability at 28.5 h, 10 µM was 108%.
For `Brc1csc(CNc2ccc3cn[nH]c3c2)c1` [CBK021216], the viability at 28.5 h, 10 µM was 75.1%.

Same assay, conditions: human, hela cells, % viability, bulk resorufin, single well
In the case of `CCOc1ccccc1CN1CCN(C)CC1` [CBK261577], the viability at 28.5 h, 10 µM was 91%.
